Experimental findings from patent US10717716B2, “1,3,4-oxadiazole derivative compounds as histone deacetylase 6 inhibitor, and the pharmaceutical composition comprising the same” (Chong Kun Dang Pharmaceutical Corp., priority 2015, dated 2020) are described below.

The target in assay [1] is T1, human recombinant HDAC1 (Homo sapiens, UniProt Q13547).
T1 construct: purchased Enzo Life Science BML-SE456
Kind of assay: HDAC1 enzyme activity inhibition assay (HDAC Fluorimetric Drug Discovery Kit). The assay is classed as biochemical. The conditions noted are these: human recombinant HDAC1, Fluor de Lys substrate 10 μM, 30° C. 60 minutes. The protocol:
In order to examine the HDAC6 selectivity of the compounds of formula I of the present invention by HDAC1 and HDAC6 enzymatic activity inhibition assays, an experiment was performed using a conventional substance as a control.
HDAC enzyme activity was measured using a HDAC Fluorimetric Drug Discovery Kit (BML-AK511, 516, Enzo Life Science). For the HDAC1 enzyme activity test, human recombinant HDAC1 (BML-SE456) was used as an enzyme source, and Fluor de Lys®-“SIRT1 (BNL-KI177) was used as a substrate. A 5-fold dilution of the compound was seeded into a 96-well plate, and then 0.3 μg of the enzyme and 10 μM of the substrate were added to each well of the plate and allowed to react at 30° C. for 60 minutes. Then, Fluor de Lys®-Developer II (BML-KI176) was added thereto and allowed to react for 30 minutes, after which the fluorescence value (Ex 360, Em 460) was measured using a multi-plate reader (Flexstation 3, Molecular Device). The HDAC6 enzyme was tested using human recombinant HDAC6 (382180) (Calbiochem) according to the same protocol as the HDAC1 enzyme activity test method. Based on the resulting values, each IC5, value was calculated using GraphPad Prism4.0 program.

Assay [2] concerns the target T2, human recombinant HDAC6 (Homo sapiens, UniProt Q9UBN7).
T2 construct: purchased Calbiochem 382180
T2 sequence (Q9UBN7 1-1215): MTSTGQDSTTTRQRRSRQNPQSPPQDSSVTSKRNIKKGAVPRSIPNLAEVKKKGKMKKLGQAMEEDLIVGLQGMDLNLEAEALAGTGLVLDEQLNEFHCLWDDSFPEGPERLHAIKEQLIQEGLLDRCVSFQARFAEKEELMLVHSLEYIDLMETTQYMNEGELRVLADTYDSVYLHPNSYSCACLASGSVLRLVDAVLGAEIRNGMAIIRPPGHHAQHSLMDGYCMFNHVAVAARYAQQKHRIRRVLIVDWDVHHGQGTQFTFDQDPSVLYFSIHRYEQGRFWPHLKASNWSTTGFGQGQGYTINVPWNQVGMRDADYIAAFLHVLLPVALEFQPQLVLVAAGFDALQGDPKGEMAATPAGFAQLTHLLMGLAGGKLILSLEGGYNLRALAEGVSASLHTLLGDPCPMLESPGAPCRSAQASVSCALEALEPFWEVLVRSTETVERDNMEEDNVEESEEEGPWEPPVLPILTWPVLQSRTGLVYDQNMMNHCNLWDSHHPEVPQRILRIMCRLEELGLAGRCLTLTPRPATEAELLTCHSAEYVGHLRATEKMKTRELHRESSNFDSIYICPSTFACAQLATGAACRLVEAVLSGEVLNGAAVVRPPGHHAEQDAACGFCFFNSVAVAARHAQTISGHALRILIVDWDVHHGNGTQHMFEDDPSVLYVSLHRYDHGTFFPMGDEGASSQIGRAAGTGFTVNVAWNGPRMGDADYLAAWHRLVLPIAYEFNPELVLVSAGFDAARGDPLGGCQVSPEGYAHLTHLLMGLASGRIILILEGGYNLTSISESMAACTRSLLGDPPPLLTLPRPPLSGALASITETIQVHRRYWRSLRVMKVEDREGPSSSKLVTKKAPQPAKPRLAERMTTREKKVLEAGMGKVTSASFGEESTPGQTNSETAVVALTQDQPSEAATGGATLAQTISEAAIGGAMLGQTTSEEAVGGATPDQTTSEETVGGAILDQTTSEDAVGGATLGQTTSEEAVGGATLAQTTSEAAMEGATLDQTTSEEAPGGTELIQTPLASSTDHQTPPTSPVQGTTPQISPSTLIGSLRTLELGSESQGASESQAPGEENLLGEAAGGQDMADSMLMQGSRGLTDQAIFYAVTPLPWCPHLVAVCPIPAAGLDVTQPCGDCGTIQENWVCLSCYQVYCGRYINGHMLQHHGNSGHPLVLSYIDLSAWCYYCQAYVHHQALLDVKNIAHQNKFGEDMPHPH
Kind of assay: HDAC6 enzyme activity inhibition assay (HDAC Fluorimetric Drug Discovery Kit). Type of assay: biochemical. The note with it: for HDAC6 selectivity (fold): HDAC6 over HDAC1; for IC50: human recombinant HDAC6, same protocol as HDAC1, read-out: HDAC6. In outline: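 Fluorimetric deacetylase assay: 5-fold serial compound dilutions, 0.3 μg recombinant human enzyme (HDAC1 or HDAC6, same protocol), 10 μM Fluor de Lys-SIRT1 substrate, 60 min at 30 °C. Signal developed 30 min, measured at 360/460 nm; IC50 values derived.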

T1 sequence (Q13547 whole entry): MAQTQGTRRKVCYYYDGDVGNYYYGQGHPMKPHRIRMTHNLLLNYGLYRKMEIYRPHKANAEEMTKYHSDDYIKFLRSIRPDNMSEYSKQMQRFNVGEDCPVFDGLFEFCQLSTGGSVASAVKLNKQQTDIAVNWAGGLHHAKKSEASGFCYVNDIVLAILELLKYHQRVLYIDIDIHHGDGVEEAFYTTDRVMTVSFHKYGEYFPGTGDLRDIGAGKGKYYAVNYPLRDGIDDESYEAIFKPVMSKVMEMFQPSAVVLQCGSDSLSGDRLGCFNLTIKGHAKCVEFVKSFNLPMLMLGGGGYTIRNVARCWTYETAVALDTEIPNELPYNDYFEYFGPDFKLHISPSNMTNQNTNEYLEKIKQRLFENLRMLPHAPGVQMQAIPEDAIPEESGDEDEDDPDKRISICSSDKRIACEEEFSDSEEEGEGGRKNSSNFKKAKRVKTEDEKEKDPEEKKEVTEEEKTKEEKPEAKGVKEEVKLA

As to `CCN1CCN(C(=O)N(Cc2ccc(-c3nnc(C(F)(F)F)o3)cc2F)c2ccc(F)c(Cl)c2)CC1` [Compound 21592, N-(3-chloro-4-fluorophenyl)-4-ethyl-N-(2-fluoro-4-(5-(trifluoromethyl)-1,3,4-oxadiazol-2-yl)benzyl)piperazine-1-carboxamide], the IC50 in assay [1] was found to be 8.28 µM. Moreover, in assay [2], the “HDAC6 selectivity (fold)” value is listed as 100 fold and the IC50 came out at 0.1 µM.

For the compound `CCN1CCN(C(=O)N(Cc2ccc(-c3nnc(C(F)F)o3)cc2F)c2ccc(F)cc2Cl)CC1` [Compound 21650, N-(2-chloro-4-fluorophenyl)-N-(4-(5-(difluoromethyl)-1,3,4-oxadiazol-2-yl)-2-fluorobenzyl)-4-ethylpiperazine-1-carboxamide], in assay [1], the IC50 was 36.1 µM. In addition, in assay [2], the “HDAC6 selectivity (fold)” value stood at 468 fold and the IC50 turned out to be 0.077 µM.

For `CN(C)[C@H]1CCN(C(=O)N(Cc2ccc(-c3nnc(C(F)F)o3)cc2F)c2ccc(F)cc2Cl)C1` [Compound 21651, (S)—N-(2-chloro-4-fluorophenyl)-N-(4-(5-(difluoromethyl)-1,3,4-oxadiazol-2-yl)-2-fluorobenzyl)-3-(dimethylamino)pyrrolidine-1-carboxamide], the IC50 in assay [1] is 49.2 µM; in assay [2], 0.061 µM. For the same compound, the “HDAC6 selectivity (fold)” value in assay [2] is listed as 806 fold.

Regarding `CN(C)[C@@H]1CCN(C(=O)N(Cc2ccc(-c3nnc(C(F)F)o3)cc2F)c2ccc(F)cc2Cl)C1` [Compound 21652, (R)—N-(2-chloro-4-fluorophenyl)-N-(4-(5-(difluoromethyl)-1,3,4-oxadiazol-2-yl)-2-fluorobenzyl)-3-(dimethylamino)pyrrolidine-1-carboxamide], the IC50 in assay [1] is 36.5 µM. Also, in assay [2], the “HDAC6 selectivity (fold)” value was 787 fold and the IC50 came out at 0.046 µM.

Consider `CN1CCN(C(=O)N(Cc2ccc(-c3nnc(C(F)F)o3)cc2F)c2ccc3cnn(C)c3c2)CC1` [Compound 21654, N-(4-(5-(difluoromethyl)-1,3,4-oxadiazol-2-yl)-2-fluorobenzyl)-4-methyl-N-(1-methyl-1H-indazol-6-yl)piperazine-1-carboxamide], for which the IC50 in assay [1] was found to be 18.8 µM. In assay [2], the “HDAC6 selectivity (fold)” value is recorded as 1518 fold and the IC50 was determined as 0.012 µM.

With `CCN1CCN(C(=O)N(Cc2ccc(-c3nnc(C(F)F)o3)cc2F)c2ccc(F)c(Br)c2)CC1` [Compound 21656, N-(3-bromo-4-fluorophenyl)-N-(4-(5-(difluoromethyl)-1,3,4-oxadiazol-2-yl)-2-fluorobenzyl)-4-ethylpiperazine-1-carboxamide], the IC50 in assay [1] worked out at 36.5 µM. In assay [2], the “HDAC6 selectivity (fold)” value is listed as 1122 fold and the IC50 was 0.033 µM.

For `CCN1CCN(C(=O)N(Cc2ccc(-c3nnc(C(F)(F)F)o3)cc2F)c2ccc(F)c(Br)c2)CC1` [Compound 21658, N-(3-bromo-4-fluorophenyl)-4-ethyl-N-(2-fluoro-4-(5-(trifluoromethyl)-1,3,4-oxadiazol-2-yl)benzyl)piperazine-1-carboxamide], the IC50 in assay [1] was 8.44 µM. Moreover, in assay [2], the “HDAC6 selectivity (fold)” value came out at 59 fold and the IC50 was found to be 0.144 µM.

On to `CCN1CCN(C(=O)N(Cc2ccc(-c3nnc(C(F)(F)F)o3)cc2F)c2cccc(F)c2F)CC1` [Compound 21659, N-(2,3-difluorophenyl)-4-ethyl-N-(2-fluoro-4-(5-(trifluoromethyl)-1,3,4-oxadiazol-2-yl)benzyl)piperazine-1-carboxamide], for which the IC50 in assay [1] was 15.7 µM. In assay [2], the “HDAC6 selectivity (fold)” value was found to be 153 fold and the IC50 came to 0.102 µM.

In the case of `CCN1CCN(C(=O)N(Cc2ccc(-c3nnc(C(F)(F)F)o3)cc2F)c2ccc(C)c(Cl)c2)CC1` [Compound 21660, N-(3-chloro-4-methylphenyl)-4-ethyl-N-(2-fluoro-4-(5-(trifluoromethyl)-1,3,4-oxadiazol-2-yl)benzyl)piperazine-1-carboxamide], the IC50 in assay [1] is 24.8 µM. For the same compound, in assay [2], the “HDAC6 selectivity (fold)” value is reported as 80 fold and the IC50 turned out to be 0.309 µM.

For the compound `O=C(N1CC[C@@H](O)C1)N(Cc1ccc(-c2nnc(C(F)(F)F)o2)cc1F)c1ccc(F)c(Cl)c1` [Compound 21664, (R)—N-(3-chloro-4-fluorophenyl)-N-(2-fluoro-4-(5-(trifluoromethyl)-1,3,4-oxadiazol-2-yl)benzyl)-3-hydroxypyrrolidine-1-carboxamide], the IC50 in assay [1] is 17.1 µM. In addition, in assay [2], the “HDAC6 selectivity (fold)” value was found to be 114 fold and the IC50 was 0.151 µM.

Consider `O=C(N1CC[C@H](F)C1)N(Cc1ccc(-c2nnc(C(F)F)o2)cc1F)c1ccc(F)c(Cl)c1` [Compound 21665, (S)—N-(3-chloro-4-fluorophenyl)-N-(4-(5-(difluoromethyl)-1,3,4-oxadiazol-2-yl)-2-fluorobenzyl)-3-fluoropyrrolidine-1-carboxamide], for which the IC50 in assay [1] was 19.1 µM. Besides, in assay [2], the “HDAC6 selectivity (fold)” value was found to be 917 fold and the IC50 is 0.021 µM.

On to `O=C(N1CC[C@H](F)C1)N(Cc1ccc(-c2nnc(C(F)(F)F)o2)cc1F)c1ccc(F)c(Cl)c1` [Compound 21666, (S)—N-(3-chloro-4-fluorophenyl)-3-fluoro-N-(2-fluoro-4-(5-(trifluoromethyl)-1,3,4-oxadiazol-2-yl)benzyl)pyrrolidine-1-carboxamide], for which the IC50 in assay [1] came out at 20.5 µM. Further, in assay [2], the “HDAC6 selectivity (fold)” value is on record as 55 fold and the IC50 was found to be 0.374 µM.

Turning to `O=C(N1CCC(F)(F)C1)N(Cc1ccc(-c2nnc(C(F)F)o2)cc1F)c1ccc(F)c(Cl)c1` [Compound 21667, N-(3-chloro-4-fluorophenyl)-N-(4-(5-(difluoromethyl)-1,3,4-oxadiazol-2-yl)-2-fluorobenzyl)-3,3-difluoropyrrolidine-1-carboxamide], the IC50 in assay [1] came out at 20.1 µM; in assay [2], 0.041 µM. In addition, in assay [2], the “HDAC6 selectivity (fold)” value turned out to be 485 fold.

On to `O=C(N1CCC(F)(F)C1)N(Cc1ccc(-c2nnc(C(F)(F)F)o2)cc1F)c1ccc(F)c(Cl)c1` [Compound 21668, N-(3-chloro-4-fluorophenyl)-3,3-difluoro-N-(2-fluoro-4-(5-(trifluoromethyl)-1,3,4-oxadiazol-2-yl)benzyl)pyrrolidine-1-carboxamide], for which the IC50 in assay [1] came to 10.4 µM. For the same compound, in assay [2], the “HDAC6 selectivity (fold)” value is on record as 41 fold and the IC50 was 0.253 µM.

For the compound `O=C(N1CCN(CCO)CC1)N(Cc1ccc(-c2nnc(C(F)(F)F)o2)cc1F)c1ccc(F)c(Cl)c1` [Compound 21669, N-(3-chloro-4-fluorophenyl)-N-(2-fluoro-4-(5-(trifluoromethyl)-1,3,4-oxadiazol-2-yl)benzyl)-4-(2-hydroxyethyl)piperazine-1-carboxamide], the IC50 in assay [1] was determined as 7.47 µM. Besides, in assay [2], the “HDAC6 selectivity (fold)” value was found to be 46 fold and the IC50 was found to be 0.164 µM.

Take `O=C(N1CCN(CCO)CC1)N(Cc1ccc(-c2nnc(C(F)F)o2)cc1F)c1ccc(F)c(Cl)c1` [Compound 21679, N-(3-chloro-4-fluorophenyl)-N-(4-(5-(difluoromethyl)-1,3,4-oxadiazol-2-yl)-2-fluorobenzyl)-4-(2-hydroxyethyl)piperazine-1-carboxamide]: the IC50 in assay [1] amounted to 23.2 µM. For the same compound, in assay [2], the “HDAC6 selectivity (fold)” value is listed as 675 fold and the IC50 turned out to be 0.034 µM.
